Data on seven compounds can be found in patent publication US8431603B2, “3-phenylpyrazolo[5,1-b]thiazole compounds” (Eisai R&D Management Co., Ltd., priority 2008, dated 2013).

The IC50 is the midpoint of a concentration-inhibition curve. As usually defined, the minimal effective dose is the lowest level tested that produced the effect sought. Read a low minimal effective dose as greater potency.

In assay [1] the test system is rats. The settings on record: cited from earlier work.
For assay [2], the system named is rats. The settings on record: cited from earlier work. The source holds these as a separate data set.
The conditions of assay [3]: pretreatment; cited from earlier work.
The conditions of assay [4]: in vivo; cited from earlier work.
For assay [5], the system named is rats. The settings on record: cited from earlier work. This is another data set of the same source.
The conditions of assay [6]: in vivo; cited from earlier work. The source holds these as a separate data set.
The conditions of assay [7]: in vivo; cited from earlier work. This is another data set of the same source.
The next assay concerns the target T1, human CRFR1 (Homo sapiens, UniProt P34998).
T1 construct: The full-length CRFR1 gene was obtained by PCR using human brain cDNA library; expressed in transfected cells; pcDNA3.1 expression vector; membrane fraction used
T1 sequence (P34998 24-415): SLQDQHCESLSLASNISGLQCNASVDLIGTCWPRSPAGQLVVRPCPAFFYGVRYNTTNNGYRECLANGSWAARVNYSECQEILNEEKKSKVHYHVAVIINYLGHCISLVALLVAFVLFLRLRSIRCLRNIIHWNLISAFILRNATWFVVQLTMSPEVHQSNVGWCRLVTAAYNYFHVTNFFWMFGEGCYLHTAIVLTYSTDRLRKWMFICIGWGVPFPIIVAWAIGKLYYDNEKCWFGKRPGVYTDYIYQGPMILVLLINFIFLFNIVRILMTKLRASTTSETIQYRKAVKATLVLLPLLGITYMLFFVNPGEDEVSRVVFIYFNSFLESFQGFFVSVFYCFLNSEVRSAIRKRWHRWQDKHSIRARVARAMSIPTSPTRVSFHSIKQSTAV
The assay is described as follows: CRFR1 binding test (SPA competition with 125I-CRF, membrane fraction of CRFR1-expressing HEK293 cells). The following applies: 100 pM 125I-CRF, room temperature, read-out: CRF1 receptor binding capacity IC50. How it is done:
The binding capacities of the compounds of the invention for CRF1 receptor (CRFR1) were evaluated.
The membrane fraction of human CRFR1 high-expressing cells was used as the material for a CRFR1 binding experiment. The CRFR1-expressing cells were prepared in the following manner. The full-length CRFR1 gene was obtained by PCR using human brain cDNA library (QuickClone™ Clontech). The obtained DNA fragment was inserted into a cloning vector and the nucleotide sequence was confirmed. cDNA having the proper nucleotide sequence was linked to an expression vector (pcDNA3.1™, Invitrogen). The CRFR1 expression vector was introduced into HEK293 cell, and the resistant cells which proliferated in culture medium containing G418 (1 mg/ml) were cloned by the limiting dilution method. Out of the cloned cells, cells having high binding affinity between the membrane fraction per unit of protein and sauvagine were selected according to the following binding experiment. And the selected cells were used for the experiments.
The cloned cells obtained in (1) were collected and suspended in ice-cooled membrane buffer (50 mM Tris-HCl, 5 mM MgCl2, 2 mM EGTA, 1 mM DTT, protease inhibitor cocktail (COMPLETE™, Roche Diagnostics) pH 7.3), and then the cells were disrupted with a Polytron ([…]) while cooling on ice (level 5, 10 seconds, 2-5 times, ice-cooling) and then centrifuged (2,000 rpm, 5 minutes, 4° C.), after which the supernatant was collected. Membrane buffer was added to the precipitate, and the mixture was subjected to Polytron treatment (same conditions as above) and centrifuged (same conditions as above), and the obtained supernatant was collected and combined with the previous supernatant. This was centrifuged (13,000 rpm (18,000×g), 30 minutes, 4° C.) to prepare cell membranes. The precipitated cell membranes were suspended in membrane buffer and disrupted with a Polytron (level 5, 10 seconds, 3-5 times, ice-cooling) to prepare a dispersed suspension. The protein assay was performed.
The following method (1) or (2) was performed for use as the cell membrane fraction.
(1) The above dispersed suspension was diluted with membrane buffer containing 0.1% BSA to a protein concentration of 200 μg/ml, for use as the cell membrane fraction
(2) The above dispersed suspension was frozen for preservation, and if needed, thawed, re-dispersed and diluted for used as the cell membrane fraction.
A binding competition experiment with CRF was conducted by the SPA (GE Healthcare) method using a 96-well plate. A mixture of 5 μg of the cell membrane fraction protein, 1 mg of SPA beads and 100 pM ^125I-CRF (Perkin Elmer) was allowed to stand at room temperature for at least 2 hours in the presence of a test compound, and the radioactivity of each well after centrifugation (1,200 rpm (260×g), 5 minutes, room temperature) was measured with a TopCount (registered trademark; Perkin Elmer).
The radioactivity with addition of a 4,000-fold excess of non-radioactive sauvagine as the nonspecific binding was subtracted from each value, and the resulting value was expressed as a percentage (% of control), with 100% as the radioactivity without addition of the test compound (control). The IC50 value was calculated from a binding inhibition curve drawn with test compound concentration on the horizontal axis and % (% of control) on the vertical axis.

Another assay has as its system Balb/c mice. The assay is described as follows: Light/dark box test in mice (anxiolytic effect). Type of assay: in vivo. How it is done:
The light/dark box test in mice was carried out according to a modified method of Belzung C., Misslin R., Vogel E. et al. (Reference; Behavioural effects of the benzodiazepine receptor partial agonist RO16-6028 in mice, Psychopharmacology, 97, 388-391, 1989). The test apparatus used was a light/dark box comprising a covered black acrylic box (dark box; 15×10×20 cm), an uncovered white acrylic box (light box; 15×20×20 cm) and a black acrylic tunnel (10×7×4.5 cm) which connects dark box and light box and enables a mouse to freely move back and forth between the dark box and light box. In this test apparatus, however, a transparent acrylic polymer was used for the front side (20×20 cm) and back side (20×20 cm) of the light box to allow observation of the behavior. After setting illumination so that the light intensity of the floor of the light box was 150 Lux, 5-week-old male Balb/c mice (purchased from Nihon Charles River) were introduced into the dark box at the beginning of the test. For the test, the tested compound was suspended in 5% dimethylsulfoxide, 5% Cremopor EL and 90% physiological saline and orally administered to the test animals one hour prior to the start of the test.
The time spent in the light box was measured as an index of the anxiolytic effect, with “spend in the light box” defined as the state in which all limbs of the mice were on the floor of the light box. […] The statistical significance between the vehicle-treated group and the test compound-treated groups was analyzed by one way analysis of variance followed by Dunnett multiple comparison when multiple doses were set for the same test, and by the Mann-Whitney U test when only one dose was set.

The test system of another assay is high-anxiety rats. The settings on record: particularly in high-anxiety rats; cited from earlier work.
For assay [8] the following is noted: in vivo; cited from earlier work. The source holds these as a separate data set.
The subject of assay [9] is rats. The following applies: cited from earlier work. This is another data set of the same source.
Another assay relates to rat. The following applies: cited from earlier work.
For assay [10] the following is noted: in vivo; cited from earlier work. This is another data set of the same source.
For the next assay, the system named is Tg2576 mice. The settings on record: cited from earlier work.
The conditions of assay [11]: in vivo; cited from earlier work. The source holds these as a separate data set.
The conditions of assay [12]: in vivo; cited from earlier work. This is another data set of the same source.
The subject of another assay is IBS patients. The settings on record: cited from earlier work.
For assay [13] the following is noted: in vivo; cited from earlier work. This is another data set of the same source.
In a further assay the test system is ethanol withdrawal rats. The settings on record: cited from earlier work.
The conditions of assay [14]: in vivo; cited from earlier work. The source holds these as a separate data set.

On to `CCCCN(CC)c1nc(C)nc2c1c(C)cn2-c1c(C)cc(C)cc1C` [CP-154526], for which the “recurrence of stress-elicited alcohol-seeking behavior” value in the assay with rats [1] is recorded as “inhibits”. Moreover, in the assay with rats [2], the “recurrence of stress-elicited drug (heroin, cocaine)-seeking behavior” value is on record as “inhibits”. In assay [3], the “naltrexone-induced morphine withdrawal symptoms” value was “inhibits”. In [4], the “learning disturbance following acute stress” value is “inhibits”. The “anti-depressant and anti-anxiety actions” value in the assay with rats [5] was “exhibits anti-depressant and anti-anxiety actions”. In assay [6], the “gastric emptying retardation following surgery” value is “ameliorates”.

For `CCN(c1nc(C)cc(N2CC=C(c3cccc(F)c3)CC2)n1)c1ccc(C(C)C)cc1SC` [CRA1000], in [7], the “stress-related reduction in food intake” value is given as “inhibit”.

For `COc1cc(C#N)cc(OC)c1-c1csc2c(N(CC3CC3)CC3CCOC3)c(OC)nn12` (stereo not drawn) [Example 14, 4-{7-[(Cyclopropylmethyl)(tetrahydrofuran-3-ylmethyl)amino]-6-methoxypyrazolo[5,1-b][1,3]thiazol-3-yl}-3,5-diimethoxybenzonitrile], the IC50 at human CRFR1 is 90 nM. For the same compound, in the assay on Balb/c mice (30 mg/kg, oral administration), the “anxiolytic effect in the light/dark box test” value is “statistically significant effects”. The minimal effective dose in the assay on Balb/c mice (Mus musculus, 1 h, minimum dose significantly prolonging time spent in the light box vs vehicle, oral, one hour prior to test) worked out at 30 mg/kg.

Regarding `CCCN(CCC)c1cc(C)nc2c(-c3cnc(N(C)C)cc3C)c(C)nn12` [Example R121919], in the assay on high-anxiety rats, the stress-related sleep disorder entry was “inhibits”. Further, the “ameliorating depression, depressive symptoms, anxiety” value in assay [8] was “effective”. In addition, the anti-anxiety action result in the assay on rats [9] is “exhibits an anti-anxiety action”.

As for `CCCN(CC1CC1)c1nc(C)nc(Nc2c(Cl)cc(Cl)cc2Cl)c1Cl` [NBI-27914], the “water avoidance stress-related rat catharsis” value with rat is given as “inhibits”. The “limbic system seizure (convulsion and epilepsy induced by CRF administration)” value in [10] is “inhibits”. Also, the “increased levels of Aβ and Aβ plaque deposition induced by stress” value with Tg2576 mice was “inhibits”.

Consider `CCCCN(CC)c1nc(C)nc2c1c(C)c(C)n2-c1c(C)cc(C)cc1C` [antalarmin], for which, in [11], the “hypertension induced by intraventricular administration of CRF” value was “inhibits”. In addition, the “stress-induced hippocampal tau phosphorylation” value in assay [12] is on record as “inhibits”.

α-helical CRF(9-41): in assay [7], the “stress-related reduction in food intake” value is given as “inhibit”. Further, in the assay on IBS patients, the “abdominal pain and anxiety” value is on record as “reduces”; the colon intestinal hyperkinesis result is “inhibits”. The “ischemic and excitotoxic encephalopathy” value in assay [13] is “inhibits”. In the assay on ethanol withdrawal rats, the anxiety behavior entry is reported as “inhibits”. Further, the “stress-related increase in intracerebral amyloid-β” value in [14] was “suppresses”.
